# Values of other authors, collected in patent US20260263393A1, “CO[…], […] COMBINATION WITH N-ACYLETHANOLAMINES, AND USES THEREOF” (Clearmind Labs Corp., priority 2023, published 2026).
# Conditions: ibogaine administered to treat drug dependence
smiles,measurement,value
"CC[C@H]1CC2C[C@H]3c4[nH]c5ccc(OC)cc5c4CC[N@@](C2)C13 [ibogaine, Ibogaine]",reduction in drug craving (duration),up to several weeks
same,sustained resolution of the withdrawal syndromes (time to),12 to 18 h
